{"source": "patent US20220105183A1", "about": "“MICRO-NANO STRUCTURE FORMED BY SELF-ASSEMBLING ORGANIC SMALL MOLECULE COMPOUND AND USE THEREOF” (Qingdao University of Science and Technology, priority 2018, published 2022)", "key": {"[1]": {"assay": "UV absorption, fluorescence emission and quantum yield in solutions of different polarities", "format": "physicochemical", "description": "The Compound II-1 of the present invention was prepared as a 2 mM storage solution in DMSO, and then 10 μL was added to 2 mL of solutions with different polarities (including water, dimethyl sulfoxide, N,N-dimethylformamide, methanol, ethanol, acetone, methylene chloride, acetonitrile), a UV spectrophotometer was used to test the UV absorption and to find the maximum absorption wavelength. The molar extinction coefficient of II-1 in solutions of different polarities was calculated from the ultraviolet absorption spectrum. Excited by the maximum absorption wavelength, the fluorescence emission spectrum was tested by a fluorescence spectrometer, the data was plotted with origin and the integral area was calculated. The fluorescence quantum yield φx, φx=φs(Fx/Fs)(As/Ax)(λexs/λexx)(nx/ns)^2, was calculated from the obtained data to obtain the characteristic parameters of Compound II-1 in solutions of different polarities (Table 3)."}, "[2]": {"assay": "DLS particle size / self-assembly of the compounds in aqueous solution", "format": "physicochemical", "conditions": "micro-nano structure, 20 μM working solution in deionized water", "description": "The term “particle size” refers to the size of particles, also known as “granularity” or “diameter”. When a certain physical characteristic or physical behavior of the measured particle is closest to a homogeneous sphere (or combination) of a certain diameter, the diameter (or combination) of the sphere is taken as the equivalent particle size of the measured particle. The particle size parameter of the micro-nano structure of the present invention is measured by the principle of dynamic light scattering (DLS), specifically measured by a laser particle size analyzer.\n(§1) Taking the self-assembled micro-nano structure of Compound II-1 as an example, II-1 was dissolved in DMSO (also can be an organic solvent such as ethanol) to prepare a 2 mM storage solution, and a small amount of storage solution was added to deionized water to prepare 20 μM working solution. Took 10 μL and dropped it on copper mesh, observed and analyzed under transmission electron microscope (TEM), cryo-transmission electron microscope. Took 10 μL and dropped it on mica plate, observed and analyzed under atomic force microscope (AFM). In FIGS. 5, A, B, C and D were TEM photographs, cryo-transmission electron microscope photographs, AFM photographs, and AFM analysis data, respectively. According to the photographs and data, II-1 was self-assembled into nanosheets with a diameter of 40-70 nm and a thickness of 3.7-3.9 nm. […]\nAmong them, the particle size test results of II-12 to II-15 in aqueous solution are shown in FIG. 6, and the results of dynamic light scattering DLS of II-16 to 1-18 are shown in FIG. 7)."}, "[3]": {"assay": "Photodynamic effect test with carboxy-H2DCFDA", "conditions": "10 μM in water with 25 μM carboxy-H2DCFDA, 808 nm laser 10 minutes", "description": "The control group only added carboxy-H2DCFDA compound. Irradiated with 808 nm laser for 10 minutes, and the sample was lowered to room temperature, and its fluorescence emission spectrum (Ex=495 nm, Em=530 nm) was tested. […] It has been verified that other compounds of the present invention have no similar photodynamic effect."}, "[4]": {"assay": "TEM, cryo-TEM and AFM of the self-assembled micro-nano structure", "format": "physicochemical", "description": "as §1"}, "[5]": {"assay": "Photothermal effect in vitro under 808 nm laser irradiation", "format": "physicochemical", "conditions": "for light-to-heat conversion efficiency: 808 nm laser; for temperature raised by / temperature reached: 808 nm laser 5 minutes; for temperature reached: from room temperature 30° C.", "description": "A total of 4 groups of samples, 3 mL was taken and added to a cuvette respectively, and the lid was sealed.\nThe sample No. 2 was 10 μM II-1, and the specific preparation method is 3 mL deionized water plus 15 μL II-1 stock solution (2 mM, dissolved in DMSO);\nThe sample No. 3 was 20 μM II-1, and the specific preparation method was that 3 mL deionized water was added 30 μL II-1 stock solution (2 mM, dissolved in DMSO);\nThe sample No. 4 was 40 μM II-1, and the specific preparation method was that 3 mL deionized water was added 60 μL II-1 stock solution (2 mM, dissolved in DMSO).\nEach sample was irradiated with an 808 nm laser for 5 minutes, and the temperature data was recorded every 5 seconds with a thermal imager, and the temperature corresponding to the time was plotted in origin, as shown in the left figure of FIG. 8. […] The temperature of sample No. 2 increased from room temperature 30° C. to 54° C., and the temperature was raised by 24° C. The temperature of sample No. 3 increased from room temperature 30° C. to 62° C., and the temperature was raised by 32° C. The temperature of sample No. 4 increased from room temperature 30° C. to 77° C., and the temperature was raised by 47° C.\nUsing a method similar to Example 8, 10 μM, 20 μM and 40 μM samples of II-16, II-17 and II-18 were prepared, respectively, they were irradiated under an 808 nm (2.6 W/cm-2) laser for 10 minutes. 40 μM II-16 to 18 samples can rise by 40° C., 36° C. and 18° C. respectively within 10 minutes under laser irradiation.\nUsing a method similar to that in Example 8, three samples of 20 μM of 1-16, II-17 and II-18 in water were irradiated with 808 nm (2.6 W/cm-2) laser for 10 minutes, and the light-to-heat conversion efficiency calculation result thereof were shown in FIG. 10. […] And II-18 not only has poor light-heat effect, but also has low light-heat conversion efficiency, only 12.9%."}, "[6]": {"conditions": "20 μM in deionized water, TEM/AFM"}, "[7]": {"conditions": "sample No. 2, 10 μM in deionized water"}, "[8]": {"conditions": "sample No. 3, 20 μM in deionized water"}, "[9]": {"conditions": "sample No. 4, 40 μM in deionized water"}}, "data": [{"smiles": "CCN1C(=CC=C2CCCC(C=CC3=C(C#N)C(=C(C#N)C#N)OC3(C)C)=C2Cl)C(C)(C)c2ccccc21", "note": "[II-1]", "values": [{"measurement": "Φ (fluorescence quantum yield)", "setting": "[1]; N,N-dimethylformamide", "value": 0.19, "unit": "%"}, {"measurement": "ε*10^4", "setting": "[1]; N,N-dimethylformamide", "value": 7.92, "unit": "M^−1cm^−1"}, {"measurement": "λem", "setting": "[1]; N,N-dimethylformamide", "value": 853, "unit": "nm"}, {"measurement": "λmax", "setting": "[1]; N,N-dimethylformamide", "value": 844, "unit": "nm"}, {"measurement": "Φ (fluorescence quantum yield)", "setting": "[1]; acetone", "value": 0.29, "unit": "%"}, {"measurement": "ε*10^4", "setting": "[1]; acetone", "value": 8.91, "unit": "M^−1cm^−1"}, {"measurement": "λem", "setting": "[1]; acetone", "value": 851, "unit": "nm"}, {"measurement": "λmax", "setting": "[1]; acetone", "value": 832, "unit": "nm"}, {"measurement": "Φ (fluorescence quantum yield)", "setting": "[1]; acetonitrile", "value": 0.35, "unit": "%"}, {"measurement": "ε*10^4", "setting": "[1]; acetonitrile", "value": 9.15, "unit": "M^−1cm^−1"}, {"measurement": "λem", "setting": "[1]; acetonitrile", "value": 850, "unit": "nm"}, {"measurement": "λmax", "setting": "[1]; acetonitrile", "value": 832, "unit": "nm"}, {"measurement": "Φ (fluorescence quantum yield)", "setting": "[1]; dichloromethane", "value": 0.35, "unit": "%"}, {"measurement": "ε*10^4", "setting": "[1]; dichloromethane", "value": 8.55, "unit": "M^−1cm^−1"}, {"measurement": "λem", "setting": "[1]; dichloromethane", "value": 850, "unit": "nm"}, {"measurement": "λmax", "setting": "[1]; dichloromethane", "value": 834, "unit": "nm"}, {"measurement": "Φ (fluorescence quantum yield)", "setting": "[1]; dimethyl sulfoxide", "value": 0.12, "unit": "%"}, {"measurement": "ε*10^4", "setting": "[1]; dimethyl sulfoxide", "value": 10.24, "unit": "M^−1cm^−1"}, {"measurement": "λem", "setting": "[1]; dimethyl sulfoxide", "value": 854, "unit": "nm"}, {"measurement": "λmax", "setting": "[1]; dimethyl sulfoxide", "value": 848, "unit": "nm"}, {"measurement": "Φ (fluorescence quantum yield)", "setting": "[1]; ethanol", "value": 0.25, "unit": "%"}, {"measurement": "ε*10^4", "setting": "[1]; ethanol", "value": 10.74, "unit": "M^−1cm^−1"}, {"measurement": "λem", "setting": "[1]; ethanol", "value": 851, "unit": "nm"}, {"measurement": "λmax", "setting": "[1]; ethanol", "value": 828, "unit": "nm"}, {"measurement": "Φ (fluorescence quantum yield)", "setting": "[1]; methanol", "value": 0.19, "unit": "%"}, {"measurement": "ε*10^4", "setting": "[1]; methanol", "value": 11.24, "unit": "M^−1cm^−1"}, {"measurement": "λem", "setting": "[1]; methanol", "value": 850, "unit": "nm"}, {"measurement": "λmax", "setting": "[1]; methanol", "value": 830, "unit": "nm"}, {"measurement": "Φ (fluorescence quantum yield)", "setting": "[1]; water", "value": 0.11, "unit": "%"}, {"measurement": "ε*10^4", "setting": "[1]; water", "value": 2.76, "unit": "M^−1cm^−1"}, {"measurement": "λem", "setting": "[1]; water", "value": 840, "unit": "nm"}, {"measurement": "λmax", "setting": "[1]; water", "value": 730, "unit": "nm"}, {"measurement": "DLS particle size peak (nm)", "setting": "[2]", "value": 104, "unit": "nm"}, {"measurement": "DLS particle size range (nm)", "setting": "[2]", "value": "33-266 nm"}, {"measurement": "production of reactive oxygen radicals (photodynamic effect)", "setting": "[3]", "value": "does not produce reactive oxygen radicals (ROS)"}, {"measurement": "nanosheet diameter", "setting": "[4]; [6]", "value": "40-70 nm"}, {"measurement": "nanosheet thickness", "setting": "[4]; [6]", "value": "3.7-3.9 nm"}, {"measurement": "Morphology", "setting": "[4]; micro-nano structure in aqueous solution, AFM and TEM", "value": "nano-sheet"}, {"measurement": "light-to-heat conversion efficiency", "setting": "[5]; [7]", "value": 60.4, "unit": "%"}, {"measurement": "temperature raised by", "setting": "[5]; [7]", "value": 24, "unit": "°C"}, {"measurement": "temperature reached", "setting": "[5]; sample No. 2, 10 μM", "value": 54, "unit": "°C"}, {"measurement": "light-to-heat conversion efficiency", "setting": "[5]; [8]", "value": 61, "unit": "%"}, {"measurement": "temperature raised by", "setting": "[5]; [8]", "value": 32, "unit": "°C"}, {"measurement": "temperature reached", "setting": "[5]; sample No. 3, 20 μM", "value": 62, "unit": "°C"}, {"measurement": "light-to-heat conversion efficiency", "setting": "[5]; [9]", "value": 60, "unit": "%"}, {"measurement": "temperature raised by", "setting": "[5]; [9]", "value": 47, "unit": "°C"}, {"measurement": "temperature reached", "setting": "[5]; sample No. 4, 40 μM", "value": 77, "unit": "°C"}]}]}
